Reference: US12357695B2, “Peptides and nanoparticles for intracellular delivery of molecules” (AADIGEN, LLC, priority 2019, dated 2025)
Entries after “also recorded” stand apart in the source; their conditions may differ.

Legend:
mice [1] = test: In vivo delivery of Luciferase mRNA, intramuscular administration, bioluminescence imaging; conditions: IM, Luc mRNA
Procedure: FIGS. 5A-5B show the potency of ADGN-peptide variants for in vivo delivery of Luciferase mRNA via intramuscular administration in mice. ADGN-peptide/luc mRNA particles containing 2.5 μg mRNA were formed in sterile water, and then diluted in 5% sucrose. Mice received […] injection o 25 μl ADGN-peptide/mRNA complexes. mRNA LUC expression was monitored by bioluminescence imaging after 12 h, 24 h and 48h (A). FIG. 5B show bioluminescence imaging at 24 hr in control and treated groups.
(§1) Stable ADGN-peptides/mRNA were evaluated for in vivo delivery of Luciferase mRNA via intravenous and intramuscular administrations. Animals were treated with single dose of 5 moU modified Luc mRNA of 5 μg. 5 moU modified Luc mRNA (5 μg) in sterile water (GIBCO) were mixed with ADGN peptide (sterile water), volume for each sample was adjusted to 100 μl, with sterile water containing 5% Sucrose. Samples were mixed gently with vortex for 1 minute at low speed and incubated for 30 min at room temperature. Samples were filtered on 0.45 μm PES filters prior administration. For IV administration Mice received 100 μl intravenous (IV) injection of either ADGN-106/mRNA, ADGN-100/mRNA, ADGN-106RI/mRNA, ADGN-100-stearyl/mRNA, ADGN-100Hydro1/mRNA, ADGN-100Hydro2 or ADGN/mRNA complexes containing 10% of ADGN-100PEG (3 animals per group). As control, mice from group 3 (2 animals per group) received IV injection of 100 μl of naked 5 moU modified Luc mRNA (5 μg). For IM administration, mice received 25 μl (5 μg mRNA) IV injection of either ADGN-100/mRNA, ADGN-106/mRNA, ADGN-106RI/mRNA or ADGN/mRNA complexes containing 10% or 20% of ADGN-100PEG (2 animals per group). As control, mice from group 3 (2 animals per group) received IV injection of 25 μl of naked 5 moU modified Luc mRNA (5 μg).
(§2) mRNA Luc expression was monitored by bioluminescence. Bioluminescence imaging was performed after 12, 24, 48 and 72 hrs. Mice received an i.p. injection of 150 μg/g luciferin for noninvasive bioluminescence imaging (IVIS Kinetic; PerkinElmer, Waltham, MA, USA).

mice or rat models = test: Summary of cargo delivery to targeted organ (Table 1); format: in vivo; conditions: cargoes and route (IV, IM, SQ, NB) per peptide as listed in Table 1
Source text: Table 1 lists a summary of cell-penetrating peptides that have been proven successful in delivering various cargo molecules to on or more targeted organ (e.g., by intravenous (IV), intramuscular (IM), or subcutaneous (SQ) administration, or intratraccheal instillation or nebulization (NB)) in mice or rat models.

mice [2] = test: In vivo delivery of Luciferase mRNA, intravenous administration, bioluminescence imaging; conditions: 5 μg Luc mRNA, single dose
Procedure: FIGS. 4A-4D show the potency of ADGN-peptide variants for in vivo delivery of Luciferase mRNA via intravenous administration in mice. ADGN-peptide/luc mRNA particles containing 5 μg mRNA were formed in sterile water, and then diluted in 5% sucrose. Mice received IV injection of 100 μl ADGN-peptide/mRNA complexes. mRNA LUC expression was monitored by bioluminescence imaging after 12 h, 24 h, 48 h and 72 h. FIG. 4B show bioluminescence imaging at 24 hr in control and treated groups. Semi-quantitative data of luciferase signal in the liver (C) and in the lung (D) were obtained using the manufacturer's software (Living Image; PerkinElmer). Results were then expressed as values relative to day 0.
as §1, §2

mice [3] = test: In vivo delivery of pGL4 plasmid DNA, intravenous administration, bioluminescence imaging; conditions: 5 μg pGL4 plasmid
Procedure: FIGS. 6A-6C show the potency of ADGN-peptide variants for in vivo delivery of Luciferase expressing plasmid pGL4 via intravenous administration in mice. ADGN-peptide/pGL4 particles containing 5 μg plasmid DNA were formed in sterile water, and then diluted in 5% sucrose. Mice received IV injection of 100 μl ADGN-peptide/plasmid complexes. pGL4 Luciferase expression was monitored by bioluminescence imaging after 12 h, 24h, 48h and 72h. […] Results were then expressed as values relative to day 0.
(§3) Stable ADGN-peptides/pGL4.11 DNA were evaluated for in vivo delivery of Luciferase mRNA via intravenous and intramuscular administrations. Animals were treated with single dose of pGL4.11 plasmid DNA of 5 μg. via IV and 2.5 μg via intramuscular administration.
pGL4.11 DNA plasmid (5 μg) in sterile water (GIBCO) were mixed with ADGN peptide (sterile water), volume for each sample was adjusted to 100 μl, with sterile water containing 5% Sucrose. Samples were mixed gently with vortex for 1 minute at low speed and incubated for 30 min at room temperature. Samples were filtered on 0.45 μm PES filters prior administration. For IV administration Mice received 100 μl IV injection of either ADGN-106/pGL4, ADGN-100/pGL4, ADGN-100RI/pGL4, ADGN-100-stearyl/PGL4, ADGN-100Hydro1/PGL4, ADGN-100Hydro2/PGL4, ADGN100 Hydro6/PGL4 or ADGN/PGL4 complexes containing 10% or 20% of ADGN-100PEG (3 animals per group). As control, mice from group 3 (2 animals per group) received IV injection of 100 μl of naked pGL4 plasmids (5 μg).
(§4) Luciferase expression was monitored by bioluminescence. Bioluminescence imaging was performed after 12, 24, 48 and 72 hrs. Mice received an i.p. injection of 150 μg/g luciferin for noninvasive bioluminescence imaging (IVIS Kinetic; PerkinElmer, Waltham, MA, USA).

mice [4] = test: In vivo delivery of pGL4 plasmid DNA, intramuscular administration, bioluminescence imaging; conditions: IM, 2.5 μg pGL4 plasmid
Procedure: FIGS. 7A-7B show the potency of ADGN-peptide variants for in vivo delivery of Luciferase expressing plasmid pGL4 via intramuscular administration in mice. ADGN-peptide/pGL4 luc particles containing 2.5 μg plasmid DNA were formed in sterile water, and then diluted in 5% sucrose. Mice received IV injection of 25 μl ADGN-peptide/pGL4 complexes. Luciferase expression was monitored by bioluminescence imaging after 12 h, 24 h and 48h (A). FIG. 7B show bioluminescence imaging at 24 hr in control and treated groups.
as §3
For IM administration, mice received 25 μl (2.5 μg of pGL4 plasmid) IV injection of either ADGN-100/PGL4, ADGN-106/PGL4, ADGN-100RI/PGL4, ADGN-100hydro1/PGL4, ADGN-100hydro6/PGL4, ADGN-100 stearyl/PGL4 or ADGN-100/PGL4 complexes containing 10% or 20% of ADGN-100PEG (2 animals per group). As control, mice from group 3 (2 animals per group) received IV injection of 25 μl of naked PGL4 plasmid (2.5 μg).
as §4

Substance	increase of luciferase expression in the muscle / efficiency relative to ADGN-106 (mice [1]) [fold]	luciferase expression (mice [1])	Targeted Organ (mice or rat models)	mRNA / luciferase expression and tissues (mice [2])	luciferase expression and tissues (mice [3])	luciferase expression (mice [4])
Ac-GYVS-Aun(CH2)6-ALWRALWRLWRSLWRLLWKA-NH2 [ADGN-106 hydro-6]	4	mediated Luciferase expression following intramuscular (IM) administration	Tumor/Pancreas/ and Lung	–	–	–
Ac-YIGSR-(G)4-KWRSALWRWRLWRVRSWSR-NH2 (Ac-YIGSRGGGGKWRSALWRWRLWRVRSWSR-NH2) [ADGN-100-Hydro-1]	–	–	Lung/Kidney/; also recorded: Liver	negligible luciferase expression	negligible luciferase expression	no significant expression
